Consider seven molecules from article PMC9866852, “New Chlorinated Metabolites and Antiproliferative Polyketone from the Mangrove Sediments-Derived Fungus Mollisia sp. SCSIO41409” (Marine Drugs, 2022).

Converted amounts (≈) assume the structure as drawn. Read-outs that look alike come from different tables or passages of the source. Marks after values point to notes of the source that are not given here. Where only a bound is given, the exact number is not on record here.

Series [1] concerns Botrytis cinerea. Put plainly: Antifungal MIC, twofold serial dilution in 96-well plates. The format is cell-based. The following applies: B. cinerea.
Series [2] concerns Verticillium dahlia kieb. The description is as above. The format is cell-based. The following applies: V. dahlia.
The subject of series [3] is Fusarium graminearum schw. Put plainly: microbe, parasite or virus in culture. The format is cell-based. The following applies: read-out: Antifungal MIC.
Series [4] concerns Fusarium oxysporum f.sp. niveum. Briefly: Antifungal MIC, twofold serial dilution in 96-well plates. The format is cell-based.
Series [5] deals with Rhizoctonia solani. Described as above. In kind it is cell-based. To be noted: R. solani.
In series [6] the test system is Septoria nodorum Berk. The series is described as above. To be noted: Parastagonospora nodorum; S. nodorum. In kind it is cell-based.
In series [7] the test system is Erysipelothrix rhusiopathiae WH13013. Put plainly: Antibacterial MIC, twofold serial dilution in 96-well plates. The format is cell-based. To be noted: E. rhusiopathiae; for MIC: Erysipelothrix rhusiopathiae, WH13013.
Series [8] deals with Staphylococcus aureus ATCC 25923. The description is as above. The format is cell-based. The following applies: S. aureus; for MIC: Staphylococcus aureus, ATCC25923.
Series [9] has as its system Streptococcus suis SC19. The description is as above. The format is cell-based. To be noted: S. suis; for MIC: Streptococcus suis, SC19.
In series [10] the test system is Escherichia coli ATCC 25922. Described as above. The format is cell-based. To be noted: ATCC25922, E. coli.
Series [11] has as its system 22Rv1 cells. Put plainly: Cytotoxicity / antiproliferative MTT assay. In kind it is cell-based, human. The following applies: read-out: Cytotoxic IC50. How it is done:
(§1) Cell viability was analyzed by 3-(4,5)-[…] (MTT) assay as previously described. In brief, cells were seeded in a 96-well plate at a density of 5 × 10^3 per well overnight and treated with compounds for demand time. OD570 values were detected using a Hybrid Multi-Mode Reader (Synergy H1, BioTek, Santa Clara, CA, USA). The experiment was independently repeated three times.

The test system of series [12] is PC-3 cells. Briefly: Cytotoxicity / antiproliferative MTT assay. The format is cell-based. The following applies: Homo sapiens, PC-3, PC-3 (androgen receptor negative); read-out: Cytotoxic IC50. As to the method: as §1
Background: Tetrazolium dyes change colour on reduction, which living cells bring about.

Series [13] deals with Botrytis cinerea, Verticillium dahlia kieb., Fusarium graminearum schw., Fusarium oxysporum f.sp. niveum, Rhizoctonia solani, Septoria nodorum Berk. In kind it is cell-based. The following applies: range over B. cinerea, V. dahlia, R. solani, S. nodorum.
Series [14] is described as follows: Cytotoxicity / antiproliferative MTT assay. In kind it is cell-based. The following applies: human, WPMY-1 cells, read-out: Cytotoxic IC50. As to the method: as §1
For series [15], the system named is A549 cells. Put plainly: Cytotoxicity / antiproliferative MTT assay. The format is cell-based. To be noted: Homo sapiens, read-out: Cytotoxic IC50. How it is done: as §1
Series [16] deals with Hela cells. Briefly: Cytotoxicity / antiproliferative MTT assay. The format is cell-based. The following applies: Homo sapiens, read-out: Cytotoxic IC50. How it is done: as §1
Series [17] relates to HepG2 cells. Briefly: Cytotoxicity / antiproliferative MTT assay. In kind it is cell-based. To be noted: read-out: Cytotoxic IC50. How it is done: as §1
Series [18] concerns WPMY-1 cells. Put plainly: Cytotoxicity / antiproliferative MTT assay. The format is cell-based. To be noted: read-out: Cytotoxic IC50. As to the method:
as §1

Series [19] deals with PC-3 cells. Briefly: Plate clone formation assay. The format is cell-based, human. To be noted: 0.16, 0.32 and 0.64 μM; two weeks. As to the method:
The cell clone colony formation was observed after two weeks of treatment. Cells were fixed with 4% formaldehyde for 30 min and washed with PBS buffer, then stained with crystal violet stain solution for 30 min. The dye solution was removed and washed the cells with PBS buffer again. Cell colonies were recorded and analyzed by the colony count analysis system (GelCount, Oxford Optronix, Oxford, UK). The experiment was repeated three times independently.

Series [20] relates to PC-3 cells. Briefly: Apoptosis assay, annexin V-FITC/PI flow cytometry. The following applies: 48 h. In kind it is cell-based, human. The text has this: (§2) Then, cells were collected and stained with annexin V-FITC and PI solution, following the manufacturer’s manual (BMS500FI-300, Thermo Fisher Scientific, Waltham, MA, USA). Apoptotic rates and cell cycle distribution of PC-3 cells were examined and analyzed by flow cytometer (NovoCyte, Agilent, Santa Clara, CA, USA). Each experiment was repeated three times independently.
For orientation: Flow cytometry measures light scatter and fluorescence of single cells or particles in a stream.

Series [21] deals with PC-3 cells. Briefly: Cell cycle distribution, flow cytometry. In kind it is cell-based, human. To be noted: 48 h.
Description: as §2

In series [22] the test system is HepG2, A549, Hela, WPMY-1, MC3T3-E1 cells. Briefly: Antiproliferative MTT assay, summary over other cells. The format is cell-based. The following applies: range over HepG2, A549, Hela, read-out: IC50 values against other cells. As to the method: as §1
In series [23] the target is human CCR5 receptor. More on the design: method as in PMID 15217290. To be noted: read-out: IC50, inhibition of binding with human CCR5 receptor; cited from earlier work.
Setting [24] is: Homo sapiens, 22Rv1, 22Rv1 (androgen receptor positive).

Turning to `O=C1NC(=O)C(Cl)=C1Cl` [Compound 3, 3,4-dichloro-1H-pyrrole-2,5-dione], the melting point (in general, the temperature of the solid-liquid transition) lay in the range of 173 to 175 °C. The molecule also gave an MIC in [1] of 25 µg/mL (≈ 151 µM). The same molecule came in with an MIC in series [2] of 25 µg/mL (≈ 151 µM). In addition, the MIC in series [3] came out at 50 µg/mL (≈ 301 µM). Moreover, the MIC in series [4] stood at 50 µg/mL (≈ 301 µM). The molecule also gave an MIC in [5] of 50 µg/mL (≈ 301 µM). The molecule further had an MIC in series [6] of 25 µg/mL (≈ 151 µM). For the same molecule, in [7], the MIC was > 100 µg/mL. Besides, the MIC in series [8] was found to be 100 µg/mL (≈ 603 µM). For the same molecule, in [9], the MIC was 100 µg/mL (≈ 603 µM). In [10], the MIC was > 100 µg/mL. Besides, in series [11] (setting [24]), the 50% inhibitory concentration (IC50) – broadly, the point on the concentration scale where inhibition reaches its midpoint – turned out to be 8.35 µM. Further, the concentration for half-maximal inhibition (IC50) in series [12] was 9.6 µM. Besides, the “MIC values against six fungi” value in series [13] fell in the range of 25 to 50 µg/mL.
For the molecule `CC=C(C)C(OC(C)=O)C(C)C1=CC(=O)C2=C(OC3(C)CCC4OC(C(C)(C)O)CCC4(C)C3C2)C1=O` (stereo not drawn) [Compound 4, stemphone C], the MIC in [1] is > 100 µg/mL; in [2], > 100 µg/mL; in series [3], > 100 µg/mL; in series [4] it was > 100 µg/mL; in series [5], > 100 µg/mL; in [6] it was 50 µg/mL (≈ 97.2 µM). In addition, the MIC was 1.56 µg/mL (≈ 3.03 µM) in [7], > 100 µg/mL in series [8], 6.25 µg/mL (≈ 12.1 µM) in series [9] and > 100 µg/mL in [10]. Besides, the half-maximal inhibitory concentration (IC50) in [11] (22Rv1 (androgen receptor positive)) was 5.81 µM; in [11] (setting [24]), < 10 µM; in series [14], < 10 µM; in series [15], 11.7 µM; in series [16] it was 11.5 µM; in series [17] (HepG2), 7.11 µM. In addition, the IC50 is < 10 µM in series [17] (Homo sapiens, HepG2, HepG2); 5.53 µM in [18]; 3.63 to 11.7 µM in series [22]. In addition, in [19], the “Formation of clonal colonies of PC-3 cells” value is “significantly inhibited the formation of clonal colonies of PC-3 cells”. The “Q3-1 quadrant, cells” value in series [20] (PC-3, 2.5 μM) was 3.29%; in [20] (PC-3, 5.0 μM), 4.69%; in series [20] (PC-3, 10.0 μM), 14.56%. The “Q3-2 quadrant (late apoptosis), cells” value was found to be 1.02% in [20] (PC-3, 2.5 μM); 4.89% in series [20] (PC-3, 5.0 μM); 36.84% in series [20] (PC-3, 10.0 μM). The “Q3-3 quadrant, cells” value in series [20] (PC-3, 2.5 μM) was 94.52%; in series [20] (PC-3, 5.0 μM), 83.56%; in series [20] (PC-3, 10.0 μM) it was 33.95%. Moreover, the “Q3-4 quadrant (early apoptosis), cells” value in series [20] (PC-3, 2.5 μM) was determined as 1.17%; in [20] (PC-3, 5.0 μM) it was 6.86%; in series [20] (PC-3, 10.0 μM), 14.64%. For the same molecule, the “Freq S” value in series [21] (PC-3, 10.0 μM) was found to be 59.14%.
As to `C[C@@H]1C[C@@H]([C@H](O)CC2CC(=O)NC(=O)C2)C(=O)[C@@H](C)C1` [Cycloheximide, reference compound], the MIC in series [1] is 12.5 µg/mL (≈ 44.4 µM); in [2], 12.5 µg/mL (≈ 44.4 µM); in series [3] it was 12.5 µg/mL (≈ 44.4 µM); in series [4], > 100 µg/mL; in series [5] it was 100 µg/mL (≈ 355 µM); in [6], 12.5 µg/mL (≈ 44.4 µM).
As for `CC(=O)O[C@@]12CO[C@@H]1C[C@H](O)[C@@]1(C)C(=O)[C@H](O)C3=C(C)[C@@H](OC(=O)[C@H](O)[C@@H](NC(=O)OC(C)(C)C)c4ccccc4)C[C@@](O)([C@@H](OC(=O)c4ccccc4)[C@H]21)C3(C)C` [Docetaxel, reference compound], the half-maximal inhibitory concentration (IC50) amounted to 0.03 µM in [11] (setting [24]); 0.51 µM in [14]; 29.9 µM in [15]; 179 µM in series [17] (Homo sapiens, HepG2, HepG2); 0.12 µM in [12]. The “Q3-1 quadrant, cells” value in series [20] (PC-3, 1.0 μM) is 5.87%. In addition, the “Q3-2 quadrant (late apoptosis), cells” value in [20] (PC-3, 1.0 μM) came out at 1.68%. The “Q3-3 quadrant, cells” value in series [20] (PC-3, 1.0 μM) is reported as 89.89%. The “Q3-4 quadrant (early apoptosis), cells” value in [20] (PC-3, 1.0 μM) amounted to 2.57%. The “Freq G2 (G2/M)” value in [21] (PC-3, 1.0 μM) amounted to 71.23%.
In the case of `CC(C)=CCC[C@H](C)[C@H]1CC[C@]2(C)C[C@H]3[C@H](C(=O)C[C@@]3(C)O)/C(C=O)=C\C[C@@H]12` [Ophiobolin C], in series [23], the IC50 is 40 µM.
Molecule `[H]/N=C(/N)N[C@H]1[C@H](O)[C@@H](O)[C@H](O[C@@H]2O[C@@H](C)[C@](O)(C=O)[C@H]2O[C@@H]2O[C@@H](CO)[C@H](O)[C@@H](O)[C@@H]2NC)[C@@H](N/C(N)=N\[H])[C@@H]1O` [Streptomycin, reference compound] registered an MIC in series [10] of 50 µg/mL (≈ 86 µM).
As to Penicillin [reference compound], the “Antibacterial MIC” value in series [7] was 6.25^b μg/mL; in [7] (listed as penicillin) it was 6.25 µg/mL; in [8] it was 6.25 ^b μg/mL; in series [9], 1.56 ^b μg/mL.
